The values that follow come from US20250099383A1, “COMPOSITIONS AND METHODS FOR DELIVERY OF NUCLEIC ACIDS” (Poseida Therapeutics, Inc., priority 2022, published 2025).

The nature of series [1]: Physical characteristics of LNPs (particle size, PDI). The class given is physicochemical.
The test system of series [2] is liver cells. Nature of the series: In vivo LNP delivery of firefly luciferase mRNA to liver, bioluminescent imaging (BLI). On the set-up: species or system BALB/C mice. The settings on record: 0.5 mg/kg fLuciferase mRNA i.v., BLI at 4 hr. Here is the method: Adult female BALB/C mice (n=3/group) were intravenously administered 0.5 mg/kg of 5′-CleanCap-fLuciferase mRNA (TriLink Biotech) formulated with LNP compositions as described in Example 66. One group of mice was treated with vehicle (PBS, Thermo Fisher Scientific, USA) as a negative control.
(§1) The location and extent of luciferase expression in treated and control mice were determined at 4 hr by bioluminescent imaging (BLI) of anesthetized mice using an IVIS Lumina in vivo imaging system (Perkin Elmer) according to the manufacturer's instructions. Briefly, mice were anesthetized using isoflurane in oxygen, and placed supine on a heated stage. Mice were then administered D-luciferin (Perkin-Elmer #122799) IP, and BLI was performed.
Adult female BALB/C mice (n=3/group) were intravenously administered 0.5 mg/kg of 5′-CleanCap-fLuciferase mRNA (TriLink Biotech) formulated with the LNP compositions shown in Table 25. One group of mice was treated with vehicle (PBS, Thermo Fisher Scientific, USA) as a negative control. […]

The nature of series [3]: Body weight change of mice after LNP administration. Type of series: in vivo, BALB/C mice. As to the method:
The mice above were also monitored for changes in body weight after LNP delivery. Mice were manually weighed on a scale before LNP dosage and then weighed 24 hrs after administration of 0.5 mg/kg of LNP article encapsulating Cleancap firefly luciferase mRNA. The average of weight change n=3 is reported below.
In addition, the body weight of mice treated with the LNP compositions of Table 25 was assessed prior to intravenous administration and twenty-four hours post-administration and the body weights at baseline and post-treatment were compared. The average percentage of body weight change for each group of mice treated with each LNP composition of Table 25 is shown in Table 28. […]

Series [4] deals with liver cells. Kind of series: In vivo LNP delivery of nanoplasmid CMV-firefly luciferase DNA to liver of juvenile mice, BLI. The settings on record: juvenile female BALB/C mice age 14 days; 0.25 mg/kg nanoplasmid CMV-firefly luciferase retroorbital i.v.; BLI at 4 hr. As to the method:
Juvenile female BALB/C mice of age 14 days (n=4/group) were retroorbitally intravenously administered 0.25 mg/kg of nanoplasmid CMV-firefly luciferase (Nature Technology Corp) formulated with LNP compositions as described in Example 66. One group of mice was treated with vehicle (PBS, Thermo Fisher Scientific, USA) as a negative control.
as §1

Series [5] relates to liver cells. Kind of series: In vivo LNP delivery of firefly luciferase DNA to liver of adult mice, BLI. The settings on record: BLI at 24 hr; for Mean Liver Luciferase Flux (p/s): AM-TTR firefly luciferase nanoplasmid DNA 0.5 mg/kg, adult BALB/C, n=3. On the set-up: species or system BALB/C mice. As to the method:
as §1
The location and extent of luciferase expression in treated and control mice were determined at 4 hr and 48 hr by bioluminescent imaging (BLI) of anesthetized mice using an IVIS Lumina in vivo imaging system (Perkin Elmer) according to the manufacturer's instructions. Briefly, mice were anesthetized using isoflurane in oxygen, and placed supine on a heated stage. Mice were then administered D-luciferin (Perkin-Elmer #122799) IP, and BLI was performed.
The location and extent of luciferase expression in treated and control mice were determined at 24 hr by bioluminescent imaging (BLI) of anesthetized mice using an IVIS Lumina in vivo imaging system (Perkin Elmer) according to the manufacturer's instructions. Briefly, mice were anesthetized using isoflurane in oxygen, and placed supine on a heated stage. Mice were then administered D-luciferin (Perkin-Elmer #122799) IP, and BLI was performed.
One group of mice was treated with an LNP composition of the present disclosure comprising Compound No. 30 as a positive control.
The location and extent of luciferase expression in treated and control mice were determined at 4 hr for RNA delivery, or 48 hr for DNA delivery, by bioluminescent imaging (BLI) of anesthetized mice using an IVIS Lumina in vivo imaging system (Perkin Elmer) according to the manufacturer's instructions. Briefly, mice were anesthetized using isoflurane in oxygen, and placed supine on a heated stage. Mice were then administered D-luciferin (Perkin-Elmer #122799) IP, and BLI was performed.

[6] abbreviates: LNP with Fluc DNA, compound/DOPE/Cholesterol/DMG-PEG2000 38/50/10.0/2.0, Lipid:DNA 45:1 (w/w).
Where [7] appears, read: LNP with Fluc mRNA, compound/DOPE/Cholesterol/DMG-PEG2000 41.44/45.85/10/2.7, Lipid:RNA 40:1 (w/w).

Each structure is given as a SMILES string.

On to `CC(C)CCCC1CCC(C(=O)OCCOC(=O)CCN(CCCN(C)CCCN(CCC(=O)OCCOC(=O)C2CCC(CCCC(C)C)CC2)CCC(=O)OCCOC(=O)C2CCC(CCCC(C)C)CC2)CCC(=O)OCCOC(=O)C2CCC(CCCC(C)C)CC2)CC1` (stereo not shown) [Compound 30], for which, in series [1] (setting [6]), the “PDI DNA” value came out at 0.167. Also, the “Particle Size (nm) DNA” value in series [1] (setting [6]) was 276.9 nm. The “PDI RNA” value in series [1] (setting [7]) is recorded as 0.170. Moreover, in series [1] (setting [7]), the “Particle Size (nm) RNA” value came to 326.7 nm. The “Mean Liver Luciferase Flux (p/s)” value in series [2] (LNP compositions of Table 25, adult female BALB/C, n=3) was 1.28e11 p/s; in series [5] (LNP (Table 47) with Compound No. 30 prepared according to Alternative General Procedure K), 31400000 p/s; in series [5] (LNP (Table 47) with Compound No. 30 prepared according to Alternative General Procedure L) it was 29600000 p/s; in series [5] (LNP (Table 47) with Compound No. 30 prepared according to Example 21), 21266666.67 p/s. The “Ave flux (p/s) n = 3” value in series [2] (adult female BALB/C mice, LNP as in Example 66) is 3.26E+10 p/s. The “Ave weight change (gram) n = 3” value in series [3] (24 hrs after 0.5 mg/kg LNP encapsulating firefly luciferase mRNA, adult female BALB/C mice) is given as −5.67 gram. In addition, the “% Body Weight Change 24 hr” value in series [3] (LNP compositions of Table 25, 0.5 mg/kg fLuciferase mRNA i.v., 24 hr post-administration vs baseline) is reported as −2.8%. In addition, the “Ave flux (p/s) n = 4” value in series [4] came to 7332500000 p/s. Besides, the “luciferase expression by BLI after DNA LNP, liver specific promoter (in words)” value in series [5] (0.5 mg/kg total DNA, nanoplasmid firefly luciferase under AM-TTR promoter, adult BALB/C mice) was “successfully delivered DNA to liver cells”.
